According to patent US5998377A, “Means for treating prostate cancer” (ASTA Medica Aktiengesellschaft, priority 1998, dated 1999):
Non-standard residues stand in square brackets, D forms with d. Residues, ends and D or L forms follow the SMILES beside them. dPhe(4-Cl) = N[C@H](Cc1ccc(Cl)cc1)C(=O)O; d2Nal = N[C@H](Cc1ccc2ccccc2c1)C(=O)O; dCit = NC(=O)NCCC[C@@H](N)C(=O)O; d3Pal = N[C@H](Cc1cccnc1)C(=O)O

Key:
[1] = test system: prostate carcinoma patients; conditions: cited from earlier work
BPH patients [2] = test: Clinical therapy of BPH with Cetrorelix (Example 1); format: in vivo, human; conditions: therapy regimen of 4 to 8 weeks
Description: The invention will be explained in detail using the following clinical results:
Cetrorelix is administered in a dose of 0.5 mg to 2 mg daily for 4 to 8 weeks for the therapy of BPH. A dose of 5 mg to 30 mg, dispensed once per week or every 10 days also over a time period of 4 to 8 weeks as well as one every two weeks or one injection per month of 20 mg to 60 mg can also decisively improve the clinical symptoms and signs. […] The prostate volume decreases by 20 to 40% during the treatment time of 4 to 8 weeks. […] In addition, at least 30% of the patients achieve an improvement of the urine flow of 6 ml/sec with this therapy. This is almost equivalent to an improvement like that associated with the golden standard operation, and in considerably shorter time. […] These clinical benefits continue for at least 3 to 6 months after therapy. This allows a long-term therapy of BPH with only an intermittent treatment of 2 to max. 4 injection cycles over 4 to 8 weeks.

BPH patients [3] = conditions: cited from earlier work
[4] = prostate carcinoma patients, end of the 6 weeks of therapy
[5] = BPH patients, 500 μg every 12 hours for 4 weeks

## CC(=O)N[C@H](Cc1ccc2ccccc2c1)C(=O)N[C@H](Cc1ccc(Cl)cc1)C(=O)N[C@H](Cc1cccnc1)C(=O)N[C@@H](CO)C(=O)N[C@@H](Cc1ccc(O)cc1)C(=O)N[C@H](CCCNC(N)=O)C(=O)N[C@@H](CC(C)C)C(=O)N[C@@H](CCCNC(=N)N)C(=O)N1CCC[C@H]1C(=O)N[C@H](C)C(N)=O [Cetrorelix] (Ac-[d2Nal][dPhe(4-Cl)][d3Pal]SY[dCit]LRP[dA]-NH2)
[1]; prostate carcinoma patients (all patients), 500 μg every 12 hours, initially
  testosterone levels, initially: lowering in testosterone levels to a castration level
[1]; [4]
  overall condition of the patient: considerable improvement
  testosterone values at the end of therapy: at the castration levels
BPH patients [2]
  increase of the peak flow of the urine: approximately 3 ml/sec
  patients achieving an improvement of the urine flow of 6 ml/sec: at least 30%
  quality of life: significant improvements as regards quality of life
  sexual performance: No limitations in sexual performance are observed
  testosterone decrease: Submaximal decreases of testosterone occur, but these are above those levels associated with castration
BPH patients [3]; BPH patients (all patients), 500 μg every 12 hours, initially
  testosterone levels, initially: lowering in testosterone levels to a castration level
BPH patients [3]; [5]
  prostate volume: a decrease in prostate volume
  symptoms of dysuria: distinct decrease of the symptoms of dysuria
BPH patients [3]; BPH patients, 500 μg every 12 hours for 4 weeks, no castration values during the last three weeks
  testosterone levels during treatment: fluctuated at subnormal levels
